# Experimental data from PubChem BioAssay AID1259407 (Chemical Carcinogenesis Research Information System (CCRIS), 2018).
# Activity calls are given as the source filed them. The rule behind the calls is not given here.
# System: CCRIS mutagenicity, Ames/micronucleus/aberration tests
# Assay: CCRIS mutagenicity studies
# [1] = Test System: AMES SALMONELLA TYPHIMURIUM, Strain/Indicator: TA1537, Metabolic Activation: NONE, Method: PREINCUBATION
smiles,measurement,setting,value
CNN,mutagenic call,"End Point: IN VITRO CHROMOSOMAL ABERRATIONS, Test System: CHL CELLS, Metabolic Activation: RAT, LIVER, S-9, SODIUM PHENOBARBITAL AND 5,6-BENZOFLAVONE",active; positive (structural changes)
same,mutagenic call,"Test System: AMES SALMONELLA TYPHIMURIUM, Strain/Indicator: TA98, Metabolic Activation: NONE, Method: PREINCUBATION",inactive; negative
same,mutagenic call,"Test System: AMES SALMONELLA TYPHIMURIUM, Strain/Indicator: TA98, Metabolic Activation: RAT LIVER S-9, PHENOBARBITAL AND BETA-NAPHTHOFLAVONE, Method: PREINCUBATION",inactive; negative
same,mutagenic call,"Test System: AMES SALMONELLA TYPHIMURIUM, Strain/Indicator: TA100, Metabolic Activation: RAT LIVER S-9, PHENOBARBITAL AND BETA-NAPHTHOFLAVONE, Method: PREINCUBATION",inactive; negative
same,mutagenic call,"Test System: AMES SALMONELLA TYPHIMURIUM, Strain/Indicator: TA102, Metabolic Activation: NONE, Method: PREINCUBATION",active; positive
same,mutagenic call,"Test System: AMES SALMONELLA TYPHIMURIUM, Strain/Indicator: TA1535, Metabolic Activation: RAT LIVER S-9, PHENOBARBITAL AND BETA-NAPHTHOFLAVONE, Method: PREINCUBATION",active; positive
same,mutagenic call,"Test System: AMES SALMONELLA TYPHIMURIUM, Strain/Indicator: TA1535, Metabolic Activation: RAT, LIVER, S-9, AROCLOR 1254, Method: PREINCUBATION",inactive; negative
same,mutagenic call,[1],inactive; negative
same,mutagenic call,"Test System: AMES SALMONELLA TYPHIMURIUM, Strain/Indicator: TA1537, Metabolic Activation: RAT LIVER S-9, PHENOBARBITAL AND BETA-NAPHTHOFLAVONE, Method: PREINCUBATION",inactive; negative
same,mutagenic call,"Test System: AMES SALMONELLA TYPHIMURIUM, Strain/Indicator: TA1537, Metabolic Activation: RAT, LIVER, S-9, AROCLOR 1254, Method: PREINCUBATION",inactive; negative
same,mutagenic call,"Test System: E. COLI, Strain/Indicator: WP2 UVRA, Metabolic Activation: NONE, Method: PREINCUBATION",active; positive
same,mutagenic call,"Test System: E.COLI, Strain/Indicator: WP2UVRA, Metabolic Activation: RAT LIVER S-9, PHENOBARBITAL AND BETA-NAPHTHOFLAVONE, Method: PREINCUBATION",active; positive
CC[C@@]1(O)C[C@H](O[C@H]2C[C@H](N(C)C)[C@H](O[C@H]3C[C@H](O)[C@H](O[C@@H]4O[C@@H](C)C(=O)C=C4N)[C@H](C)O3)[C@H](C)O2)c2c(cc3c(c2O)C(=O)c2c(O)ccc(O)c2C3=O)[C@H]1C(=O)OC,mutagenic call,"Test System: AMES SALMONELLA TYPHIMURIUM, Strain/Indicator: TA98, Metabolic Activation: NONE",active; positive
same,mutagenic call,"Test System: AMES SALMONELLA TYPHIMURIUM, Strain/Indicator: TA98, Metabolic Activation: RAT, LIVER, S-9, AROCLOR 1254",active; positive
CCCCCCCCCCSCn1cc[n+](C)c1,mutagenic call,"Test System: AMES SALMONELLA TYPHIMURIUM, Strain/Indicator: TA98, Metabolic Activation: NONE, Method: STANDARD PLATE",inactive; negative
same,mutagenic call,"Test System: AMES SALMONELLA TYPHIMURIUM, Strain/Indicator: TA98, Metabolic Activation: RAT, LIVER, S-9, AROCLOR 1254, Method: STANDARD PLATE",inactive; negative
same,mutagenic call,"Test System: AMES SALMONELLA TYPHIMURIUM, Strain/Indicator: TA100, Metabolic Activation: NONE, Method: STANDARD PLATE",inactive; negative
same,mutagenic call,"Test System: AMES SALMONELLA TYPHIMURIUM, Strain/Indicator: TA100, Metabolic Activation: RAT, LIVER, S-9, AROCLOR 1254, Method: STANDARD PLATE",active; positive
same,mutagenic call,"Test System: AMES SALMONELLA TYPHIMURIUM, Strain/Indicator: TA1535, Metabolic Activation: NONE, Method: STANDARD PLATE",inactive; negative
same,mutagenic call,"Test System: AMES SALMONELLA TYPHIMURIUM, Strain/Indicator: TA1535, Metabolic Activation: RAT, LIVER, S-9, AROCLOR 1254, Method: STANDARD PLATE",active; positive
same,mutagenic call,"Test System: AMES SALMONELLA TYPHIMURIUM, Strain/Indicator: TA1537, Metabolic Activation: NONE, Method: STANDARD PLATE",inactive; negative
same,mutagenic call,"Test System: AMES SALMONELLA TYPHIMURIUM, Strain/Indicator: TA1537, Metabolic Activation: RAT, LIVER, S-9, AROCLOR 1254, Method: STANDARD PLATE",inactive; negative
same,mutagenic call,"Test System: AMES SALMONELLA TYPHIMURIUM, Strain/Indicator: TA1538, Metabolic Activation: NONE, Method: STANDARD PLATE",inactive; negative
same,mutagenic call,"Test System: AMES SALMONELLA TYPHIMURIUM, Strain/Indicator: TA1538, Metabolic Activation: RAT, LIVER, S-9, AROCLOR 1254, Method: STANDARD PLATE",inactive; negative
CC(Oc1ccc(Oc2cnc3cc(Cl)ccc3n2)cc1)C(=O)O (configuration not stated),mutagenic call,"Test System: Mouse lymphoma, Strain/Indicator: L5178Y (tk+/tk-), Metabolic Activation: None, Method: Suspension/plate",active; positive
same,mutagenic call,"Test System: Mouse lymphoma, Strain/Indicator: L5178Y (tk+/tk-), Metabolic Activation: Rat, Liver, S-9, Aroclor 1254, Method: Suspension/plate",active; positive
Nc1ccccc1S,mutagenic call,"End Point: In vitro chromosomal aberrations, Test System: Chinese hamster lung (CHL/IU) cells, Metabolic Activation: Rat, Liver, S9, Phenobarbital and 5,6-benzoflavone",active; positive (structural changes and ploidy).
same,mutagenic call,"Test System: AMES SALMONELLA TYPHIMURIUM, Strain/Indicator: TA98, Metabolic Activation: RAT, LIVER, S-9, PHENOBARBITAL AND BETA-NAPHTHOFLAVONE, Method: PREINCUBATION",inactive; negative
same,mutagenic call,"Test System: AMES SALMONELLA TYPHIMURIUM, Strain/Indicator: TA100, Metabolic Activation: NONE, Method: PREINCUBATION",inactive; negative
same,mutagenic call,"Test System: AMES SALMONELLA TYPHIMURIUM, Strain/Indicator: TA100, Metabolic Activation: RAT, LIVER, S-9, PHENOBARBITAL AND BETA-NAPHTHOFLAVONE, Method: PREINCUBATION",inactive; negative
same,mutagenic call,"Test System: AMES SALMONELLA TYPHIMURIUM, Strain/Indicator: TA1535, Metabolic Activation: NONE, Method: PREINCUBATION",inactive; negative
same,mutagenic call,"Test System: AMES SALMONELLA TYPHIMURIUM, Strain/Indicator: TA1535, Metabolic Activation: RAT, LIVER, S-9, PHENOBARBITAL AND BETA-NAPHTHOFLAVONE, Method: PREINCUBATION",inactive; negative
same,mutagenic call,[1],inactive; negative
same,mutagenic call,"Test System: AMES SALMONELLA TYPHIMURIUM, Strain/Indicator: TA1537, Metabolic Activation: RAT, LIVER, S-9, PHENOBARBITAL AND BETA-NAPHTHOFLAVONE, Method: PREINCUBATION",inactive; negative
same,mutagenic call,"Test System: AMES SALMONELLA TYPHIMURIUM, Strain/Indicator: TA1537, Metabolic Activation: RAT, LIVER, S-9, SODIUM PHENOBARBITAL AND 5,6-BENZOFLAVONE, Method: PREINCUBATION",inactive; negative
same,mutagenic call,"Test System: E. COLI, Strain/Indicator: WP2UVRA, Metabolic Activation: NONE, Method: PREINCUBATION",inactive; negative
same,mutagenic call,"Test System: E. COLI, Strain/Indicator: WP2UVRA, Metabolic Activation: RAT, LIVER, S-9, PHENOBARBITAL AND BETA-NAPHTHOFLAVONE, Method: PREINCUBATION",inactive; negative
